Measurements: patent US10494380B2, “Nitrogen-containing tricyclic derivatives having HIV replication inhibitory activity” (priority 2015, dated 2019)
Read-outs that look alike come from different tables or passages of the source.

Assays:
[1] = test system: T125A mutant virus (HIV-1 NL-432 recombinant molecular clone, IN gene); assay: HIV replication inhibition assay against integrase 124/125 mutant virus (Test Example 2); type: cell-based
Description: Persistently HIV (HTLV-IIIB strain) infected human T cell strain Molt-4 clone8 was cultured in RPMI-1640 medium supplemented with 10% fetal bovine serum and the supernatant was filtered, then the virus titer was measured and stored at −80° C. Polymorphic mutations in HIV-1-infected patients have been observed in amino acids 124 and 125 on the HIV-1 integrase (IN) gene. A point mutation was introduced on the amino acids 124 and/or 125 of IN gene of the HIV-1 NL-432 recombinant molecular clone to generate a mutant virus plasmid construct. These mutant virus plasmids were transfected into 293T cells, and after two days, the supernatant was filtered and then the virus titer was measured and stored at −80° C. Each anti-HIV active substance was diluted with culture medium described above to the designated concentration, which was dispensed into 96-well microtiter plate by 50 μL. Next, 100 μL of MT-4 cell suspension (2.5×10^4 cells) was dispensed into each well, then 50 μl of HIV-containing supernatant diluted with culture medium described above was added thereto (60 pfu (plaque forming unit)).
Cells were cultured at 37° C. in CO2 incubator for four days, then 30 μL of MTT (3-(4,5-dimethylthiazole-2-yl)-2,5-diphenyltetrazolyum bromide) reagent (5 mg/mL in PBS) was added to all wells followed by incubation for 1 hour. In this step, MTT was reduced to insoluble formazan in living cells. To elute generated formazan, 150 μL of the culture supernatant was removed from all wells, then 150 μL of cell lysis solution (10% Triton X-100 and 0.4% (v/v)-HCl containing isopropanol) was added thereto, followed by shaking with a plate mixer. The formazan was measured with micro plate reader at OD: 560 nm and 690 nm (reference wavelength) and the result was compared with the reference wells. EC50 means the compound concentration at which 50% of cytotoxicity caused by virus infection is inhibited.

HIV = type: cell-based; conditions: EC50 in the presence of human serum (25%) versus without human serum, MT-4 cells
Description: To confirm the influence of human serum on anti-HIV activity as necessary, human serum was added and determined EC50 in this condition. Human serum (100 μL/well) was dispensed into each anti-HIV active substance at a designated concentration dispensed 50 μL each in advance into a 96-well microtiter plate, and the plate was incubate at room temperature for 1 hour. To the serum-free plate, only culture medium (100 μL/well) was dispensed into 96-well microtiter plate. MT-4 cells (3×10^4 cells/well) was infected with 3 μL/well of HIV solution diluted to an appropriate concentration (600 pfu/50 μL) by the required number of wells and incubated at 37° C. for 1 hour. The infected cells were centrifuged at 1200 rpm for 5 minutes, the supernatant was discarded, and the infected cells were dispersed into culture medium for the required number of wells at 50 μL/well. Infected cell suspension was dispensed into a 96-well microtiter plate of which anti-HIV active substance and human serum prepared in advance. The cell mixture was mixed with a plate mixer and cultured in a CO2 incubator for 4 days. The EC50 in the presence of human serum was calculated in the same manner as in Test Example 1 and the ratio of EC50 in the presence of human serum and EC50 in the absence of human serum was calculated as the potency shift value. […]

[2] = Human immunodeficiency virus 1, MT4, read-out: EC50 against T125A mutant virus, T125A mutant virus (HIV-1 NL-432 IN gene), MT-4 cells, MTT
[3] = T125A mutant virus (HIV-1 NL-432 IN gene), MT-4 cells, MTT, read-out: EC50 against T125A mutant virus

| SMILES | EC50 [1, 2] [nM] | Potency shift value (HIV) | other results |
| --- | --- | --- | --- |
| Cc1ccc(-c2c([C@H](OC(C)(C)C)C(=O)O)c(C)c3c4c2cc(C)n4CCN3CCN2CCCC2)cc1 [Compound I-130] | 27 | 2.7 | – |
| Cc1c([C@H](OC(C)(C)C)C(=O)O)c(-c2ccc(Cl)cc2)c2cc(C)n3c2c1N(C)C1COCC13 (some centres unmarked) [Compound I-138] | – | 5.8 | EC50 ([1]; read-out: EC50 against T125A mutant virus, T125A mutant virus (HIV-1 NL-432 IN gene), MT-4 cells, MTT): 1.5 nM |
| Cc1c([C@H](OC(C)(C)C)C(=O)O)c(-c2ccc(Cl)cc2)c2cc(C)n3c2c1N(Cc1cnccn1)CC3 [Compound I-152] | 11 | 6.9 | – |
| Cc1c(-c2c([C@H](OC(C)(C)C)C(=O)O)c(C)c3c4c2cc(C)n4CCN3C)cc(F)c2c1CCCO2 [Compound I-159] | 16 | 8.8 | – |
| Cc1c([C@H](OC(C)(C)C)C(=O)O)c(-c2ccc(F)cc2)c2cc(C)n3c2c1N(CC(=O)N(C)C)CC3 [Compound I-161] | – | 1.9 | – |
| Cc1ccc(-c2c([C@H](OC(C)(C)C)C(=O)O)c(C)c3c4c2cc(C)n4CCN3CCN2CCC(F)(F)C2)cc1 [Compound I-162] | 35 | 7.5 | – |
| Cc1c([C@H](OC(C)(C)C)C(=O)O)c(-c2ccc(Cl)cc2)c2cc(C)n3c2c1N(c1nccs1)CC3 [Compound I-165] | 6.9 | 8.3 | – |
| Cc1c([C@H](OC(C)(C)C)C(=O)O)c(-c2ccc(Cl)cc2)c2cc(C)n3c2c1N(C(N)=S)CC3 [Compound I-166] | 62 | 3.5 | – |
| Cc1c([C@H](OC(C)(C)C)C(=O)O)c(-c2ccc(Cl)cc2)c2cc(C)n3c2c1N(C(=O)C(=O)N(C)C)[C@@H](C)C3 [Compound I-168] | – | 2.9 | – |
| Cc1c([C@H](OC(C)(C)C)C(=O)O)c(-c2ccc(Cl)cc2)c2cc(C)n3c2c1N(C(=O)C(=O)N(C)C)[C@H](C)C3 [Compound I-169] | 50 | 30 | – |
| Cc1c([C@H](OC(C)(C)C)C(=O)O)c(-c2ccc(Cl)cc2)c2cc(C)n3c2c1N(C(N)=O)CC3 [Compound I-173] | 71 | 4 | – |
| Cc1c([C@H](OC(C)(C)C)C(=O)O)c(-c2ccc(Cl)cc2)c2cc(C)n3c2c1C=CC3 [Compound I-174] | 55 | 14 | – |
| Cc1ccc(-c2c([C@H](OC(C)(C)C)C(=O)O)c(F)c3c4c2cc(C)n4CCN3C)cc1 [Compound I-179] | 83 | 23 | – |
| Cc1c([C@H](OC(C)(C)C)C(=O)O)c(-c2ccc(Cl)cc2)c2cc(C)n3c2c1N(C1=NCCO1)CC3 [Compound I-180] | 13 | 7.8 | – |
| Cc1c([C@H](OC(C)(C)C)C(=O)O)c(-c2ccc(Cl)cc2)c2cc(C)n3c2c1N(c1ncc(O)cn1)CC3 [Compound I-183] | 31 | 7.6 | – |
| COc1cnc(N2CCn3c(C)cc4c(-c5ccc(F)cc5)c([C@H](OC(C)(C)C)C(=O)O)c(C)c2c43)nc1 [Compound I-185] | 7.1 | 15 | – |
| Cc1ccc(-c2c([C@H](OC(C)(C)C)C(=O)O)c(C)c3c4c2cc(C)n4CCN3c2ncc(OCCNS(C)(=O)=O)cn2)cc1 [Compound I-222] | – | – | EC50 [1, 3]: 89 nM |
| Cc1c([C@H](OC(C)(C)C)C(=O)O)c(-c2ccc(Cl)cc2)c2cc(C)n3c2c1N(c1ncc(OCOCC[Si](C)(C)C)cn1)CC3 [Compound I-233] | – | 12 | – |
| Cc1c([C@H](OC(C)(C)C)C(=O)O)c(-c2ccc(Cl)cc2)c2cc(C)n3c2c1N(c1ncc(OCc2ccc(F)cc2)cn1)CC3 [Compound I-236] | 9.9 | – | – |
| Cc1c([C@H](OC(C)(C)C)C(=O)O)c(-c2ccc(Cl)cc2)c2cc(C)n3c2c1N(C)C1CNCC13 (some centres unmarked) [Compound I-237] | – | 2.4 | – |
| Cc1c([C@H](OC(C)(C)C)C(=O)O)c(-c2ccc(Cl)cc2)c2cc(C)n3c2c1N(c1ncc(OC(C)C)cn1)CC3 [Compound I-261] | 3.7 | – | – |
| Cc1ccc(-c2c([C@H](OC(C)(C)C)C(=O)O)c(C)c3c4c2cc(C)n4CCN3c2ncc(Cl)cn2)cc1 [Compound I-263] | 7.2 | – | – |
| Cc1ccc(-c2c([C@H](OC(C)(C)C)C(=O)O)c(C)c3c4c2cc(C)n4CCN3c2ncc(C3CC3)cn2)cc1 [Compound I-271] | 4.2 | – | – |

| SMILES | EC50 [1, 2] [nM] | Potency shift value (HIV) | other results |
| --- | --- | --- | --- |
| COc1ccnc(N2CCn3c(C)cc4c(-c5ccc(C)cc5)c([C@H](OC(C)(C)C)C(=O)O)c(C)c2c43)c1 [Compound I-277] | 14 | – | – |
| Cc1ccc(-c2c([C@H](OC(C)(C)C)C(=O)O)c(C)c3c4c2cc(C)n4CCN3c2cccc(C(F)(F)F)n2)cc1 [Compound I-285] | – | 5.1 | – |
| Cc1ccc(-c2c([C@H](OC(C)(C)C)C(=O)O)c(C)c3c4c2cc(C)n4CCN3c2ncc(CO)cn2)cc1 [Compound I-290] | 22 | – | – |
| C=CCN1CCn2c(C)cc3c(-c4ccc(C)cc4)c([C@H](OC(C)(C)C)C(=O)O)c(C)c1c32 [Compound I-294] | 16 | – | – |
| CCO[C@H](C(=O)O)c1c(C)c2c3c(cc(C)n3CCN2c2ncc(OC)cn2)c1-c1ccc(Cl)cc1 [Compound I-296] | – | 2.1 | – |
| CCCO[C@H](C(=O)O)c1c(C)c2c3c(cc(C)n3CCN2c2ncc(OC)cn2)c1-c1ccc(Cl)cc1 [Compound I-297] | – | 7.6 | – |
| COc1cnc(N2CCn3c(C)cc4c(-c5ccc(Cl)cc5)c([C@H](OCC5CC5)C(=O)O)c(C)c2c43)nc1 [Compound I-298] | – | 11 | – |
| Cc1c([C@H](OC(C)(C)C)C(=O)O)c(-c2ccc(Cl)cc2)c2cc(C)n3c2c1N(c1ncc(C2=CCOCC2)cn1)CC3 [Compound I-300] | 4.6 | – | – |
| Cc1ccc(-c2c([C@H](OC(C)(C)C)C(=O)O)c(Cl)c3c4c2cc(C)n4CCN3c2ncc(C)cn2)cc1 [Compound I-301] | 3.3 | – | – |
| Cc1ccc(-c2c([C@H](OC(C)(C)C)C(=O)O)c(C)c3c4c2cc(C)n4C2(CCCC2)CN3C)cc1 [Compound I-302] | – | – | EC50 [1, 3]: 43 nM |
| COc1cnc(N2CCn3c(C)cc4c(-c5ccc(Cl)cc5)c([C@H](OCCO)C(=O)O)c(C)c2c43)nc1 [Compound I-317] | – | 1.3 | – |
| COc1cnc(N2CCn3c(C)c(Cl)c4c(-c5ccc(C)cc5)c([C@H](OC(C)(C)C)C(=O)O)c(C)c2c43)nc1 [Compound I-323] | 16 | – | – |
| COc1cnc(N2CCn3c(C)c(Cl)c4c(-c5ccc(C)cc5)c([C@H](OC(C)(C)CO)C(=O)O)c(C)c2c43)nc1 [Compound I-324] | 63 | – | – |
| CCCCO[C@H](C(=O)O)c1c(C)c2c3c(cc(C)n3CCN2c2ncc(OC)cn2)c1-c1ccc(Cl)cc1 [Compound I-325] | – | 5.4 | – |
| CCCCCO[C@H](C(=O)O)c1c(C)c2c3c(cc(C)n3CCN2c2ncc(OC)cn2)c1-c1ccc(Cl)cc1 [Compound I-326] | – | 5.8 | – |
| Cc1c([C@H](OC(C)(C)C)C(=O)O)c(-c2ccc(Cl)cc2)c2cc(C)n3c2c1N(C)C(c1ccccc1)C3 (some centres unmarked) [Compound I-333] | – | 6.4 | – |
| Cc1c([C@H](OC(C)(C)C)C(=O)O)c(-c2ccc(Cl)cc2)c2cc(C)n3c2c1N(C)C(c1ccccc1)C3 (some centres unmarked) [Compound I-334] | 93 | – | – |
| COCCc1cnc(N2CCn3c(C)cc4c(-c5ccc(C)cc5)c([C@H](OC(C)(C)C)C(=O)O)c(C)c2c43)nc1 [Compound I-336] | 2.7 | – | – |
| Cc1ccc(-c2c([C@H](OC(C)(C)C)C(=O)O)c(C)c3c4c2cc(C)n4CCN3c2ncc(Oc3ccccn3)cn2)cc1 [Compound I-339] | 11 | – | – |
| Cc1ccc(-c2c([C@H](OC(C)(C)C)C(=O)O)c(C)c3c4c2cc(C)n4CCN3c2ncc(Oc3cnccn3)cn2)cc1 [Compound I-341] | 4.1 | – | – |
| Cc1ccc(-c2c([C@H](OC(C)(C)C)C(=O)O)c(C)c3c4c2cc(C)n4CCN3c2ncc(Oc3cccnn3)cn2)cc1 [Compound I-342] | 13 | – | – |
| COc1cc(Oc2cnc(N3CCn4c(C)cc5c(-c6ccc(C)cc6)c([C@H](OC(C)(C)C)C(=O)O)c(C)c3c54)nc2)nc(OC)n1 [Compound I-346] | 10 | – | – |
